Laboratory results from US6440974B2, “Compounds useful for inhibition of farnesyl protein transferase” (Schering Corporation, priority 1997, dated 2002).

Experiments:
[1] = target: farnesyl protein transferase (Homo sapiens, UniProt P49354+P49356); assay: FPT IC50 (inhibition of farnesyl protein transferase, in vitro enzyme assay); type: biochemical
Method: (§1) FPT IC50 (inhibition of famesyl protein transferase, in vitro enzyme assay) and COS Cell IC50 (Cell-Based Assay) were determined following the assay procedures described in WO 95/10516, published Apr. 20, 1995. GGPIT IC50 (inhibition of geranylgeranyl protein transferase, in vitro enzyme assay), Cell Mat Assay, and anti-tumor activity (in vivo anti-tumor studies) could be determined by the assay procedures described in WO 95/10516. The disclosure of WO 95/10516 is incorporated herein by reference thereto.

COS Cell = COS Cell IC50 (Cell-Based Assay); settings: for IC50: cell-based assay
Method: as §1

Human tumor cells = assay: Soft Agar Assay (anchorage-independent growth); type: cell-based
Method: Anchorage-independent growth is a characteristic of tumorigenic cell lines. Human tumor cells can be suspended in growth medium containing 0.3% agarose and an indicated concentration of a farnesyl transferase inhibitor. The solution can be overlayed onto growth medium solidified with 0.6% agarose containing the same concentration of farnesyl transferase inhibitor as the top layer. After the top layer is solidified, plates can be incubated for 10-16 days at 37° C. under 5% CO2 to allow colony outgrowth. After incubation, the colonies can be stained by overlaying the agar with a solution of MTT (3-[4,5-dimethylthiazol-2-yl]-2,5-diphenyltetrazolium bromide, Thiazolyl blue) (1 mg/mL in PBS). Colonies can be counted and the IC50's can be determined.

| IC50 [1] [nM] | melting point | IC50 (Human tumor cells) [nM] | SMILES | IC50 (COS Cell; COS) [nM] | IC50 (COS Cell) [nM] | COS Cell, percent at given concentration (printed in the COS Cell IC50 column) (COS Cell; @ 10 nM) [% @ 10] |
| --- | --- | --- | --- | --- | --- | --- |
| 4.7 |  |  | O=C(CN1CC[S+]([O-])CC1)N1CCN(C2c3ccc(Cl)c(Br)c3CCc3cc(Br)cnc32)CC1 (centres unmarked) [Example 39] | 68 |  |  |
| 2.2 | 141 to 151 °C (dec.) | 8 | O=C(CC1CCOCC1)N1CCC([C@@H]2c3c(Br)cc(Cl)cc3CCc3cc(Br)c[n+]([O-])c32)CC1 [Example 40] |  |  | 100 |
| 4.9 |  |  | O=C(CN1CCSCC1)N1CCC([C@H]2c3ncc(Br)cc3CCc3cc(Cl)cc(Br)c32)CC1 [Example 37] | < 10 |  |  |
| 45 |  |  | O=C(CC1CCOCC1)N1CCN([C@@H]2c3ccc(Cl)cc3CCc3cc(Br)cnc32)CC1 [Example 33] |  |  |  |
| 3.1 |  |  | O=C(CN1CCOCC1)N1CCC([C@H]2c3ncc(Br)cc3CCc3cc(Cl)cc(Br)c32)CC1 [Example 36] |  |  |  |

More lines, now with the values behind:

| SMILES | IC50 [1] [nM] | melting point | IC50 (Human tumor cells) [nM] | IC50 (COS Cell; COS) [nM] | IC50 (COS Cell) [nM] | COS Cell, percent at given concentration (printed in the COS Cell IC50 column) (COS Cell; @ 10 nM) [% @ 10] |
| --- | --- | --- | --- | --- | --- | --- |
| O=C(CC1COCCO1)N1CCC(C2c3ncc(Br)cc3CCc3cc(Cl)cc(Br)c32)CC1 (centres unmarked) [Example 6] | 23 | 111 to 124 °C (dec.) |  |  |  |  |
| O=C(C1CC2CCC1CO2)N1CCC(C2c3ncc(Br)cc3CCc3cc(Cl)cc(Br)c32)CC1 (single isomer, unassigned) [Example 30] | 7.5 | 151 to 159 °C (dec.) |  |  | 75 |  |
| O=C(CC1CCCCO1)N1CCC(C2c3ncc(Br)cc3CCc3cc(Cl)cc(Br)c32)CC1 (centres unmarked) [Example 8] | 2 | 116 to 122 °C (dec.) |  | 68 |  |  |
| O=C(CC1CCCO1)N1CCC(C2c3ncc(Br)cc3CCc3cc(Cl)cc(Br)c32)CC1 (centres unmarked) [Example 7] | 42 | 107 to 115 °C (dec.) |  |  |  |  |
| O=C(C1CC2CCC1CO2)N1CCC(C2c3ncc(Br)cc3CCc3cc(Cl)cc(Br)c32)CC1 (single isomer, unassigned) [Example 29] | 6.7 | 152 to 164 °C (dec.) |  |  | 30 |  |
| O=C(CC1=CCOCC1)N1CCC(C2c3ncc(Br)cc3CCc3cc(Cl)cc(Br)c32)CC1 (centres unmarked) [Example 3] | 6.1 | 110.3 to 113.9 °C |  |  |  |  |
| O=C(CC1CCOCC1)N1CCC([C@H]2c3ncc(Br)cc3CCc3cc(Cl)cc(Br)c32)CC1 [Example 1] |  | 83.2 to 88.7 °C |  |  |  |  |
